These results are taken from BindingDB's records for doi:10.1074/jbc.M413155200 (Vertex Pharmaceuticals, 2005).

The target in the assay is Serine/threonine-protein kinase pim-1 (Homo sapiens, UniProt P11309). Nature of the assay: Kinase Assay. The note with it: pH 7.6; 30 °C.
Chain of Serine/threonine-protein kinase pim-1 (P11309 whole entry): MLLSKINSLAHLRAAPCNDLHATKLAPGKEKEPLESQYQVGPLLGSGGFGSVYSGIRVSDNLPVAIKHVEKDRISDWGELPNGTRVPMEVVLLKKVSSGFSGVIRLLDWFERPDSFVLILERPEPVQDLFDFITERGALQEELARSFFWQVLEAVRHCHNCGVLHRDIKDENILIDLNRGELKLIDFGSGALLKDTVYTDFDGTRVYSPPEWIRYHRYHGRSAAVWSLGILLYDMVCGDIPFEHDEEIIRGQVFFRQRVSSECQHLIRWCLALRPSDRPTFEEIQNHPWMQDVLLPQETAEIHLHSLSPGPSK

Molecule `COC(=O)[C@@]1(O)C[C@H]2O[C@]1(C)n1c3ccccc3c3c4c(c5c6ccccc6n2c5c31)C(=O)NC4` returned a 50% inhibitory concentration (IC50) of 150 nM.
